Data: ChEMBL document CHEMBL1129469, “Nonpeptide angiotensin II receptor antagonists: the next generation in antihypertensive therapy” (J Med Chem, 1996)
Positions count from the first letter of the chain named.

Tests used:
[1] = target: T1, Type-2 angiotensin II receptor (Rattus norvegicus, UniProt P35351); assay: Inhibitory activity at Angiotensin II type 2 receptor.
T1 sequence (P35351 whole entry): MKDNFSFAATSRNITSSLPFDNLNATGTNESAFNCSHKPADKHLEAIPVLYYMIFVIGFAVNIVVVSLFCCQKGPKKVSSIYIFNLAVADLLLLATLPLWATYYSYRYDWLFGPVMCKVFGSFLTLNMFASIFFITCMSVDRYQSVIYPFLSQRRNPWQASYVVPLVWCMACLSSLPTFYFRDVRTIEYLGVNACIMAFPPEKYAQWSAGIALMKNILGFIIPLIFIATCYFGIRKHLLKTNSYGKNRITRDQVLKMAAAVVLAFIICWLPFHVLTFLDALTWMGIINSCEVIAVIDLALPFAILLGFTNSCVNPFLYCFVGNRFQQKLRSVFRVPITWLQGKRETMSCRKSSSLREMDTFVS

[2] = target: T2, Angiotensin II receptor (AT-1) type-1 (Rattus norvegicus, UniProt P29089+P25095); assay: Inhibitory activity against Angiotensin II receptor, type 1; assay type: protein assay
T2 sequence (P29089 whole entry): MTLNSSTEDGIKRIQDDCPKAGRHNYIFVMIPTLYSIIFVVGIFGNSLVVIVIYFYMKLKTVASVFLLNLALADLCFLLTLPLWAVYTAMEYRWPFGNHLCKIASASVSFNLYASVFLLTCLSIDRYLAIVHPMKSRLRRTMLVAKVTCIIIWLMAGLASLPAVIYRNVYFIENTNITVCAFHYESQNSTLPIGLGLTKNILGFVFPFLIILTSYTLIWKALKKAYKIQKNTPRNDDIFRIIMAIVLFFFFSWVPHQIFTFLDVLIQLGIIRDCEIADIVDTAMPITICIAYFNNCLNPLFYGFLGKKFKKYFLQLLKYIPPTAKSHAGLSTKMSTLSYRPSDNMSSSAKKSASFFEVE
T2 sequence (P25095 whole entry): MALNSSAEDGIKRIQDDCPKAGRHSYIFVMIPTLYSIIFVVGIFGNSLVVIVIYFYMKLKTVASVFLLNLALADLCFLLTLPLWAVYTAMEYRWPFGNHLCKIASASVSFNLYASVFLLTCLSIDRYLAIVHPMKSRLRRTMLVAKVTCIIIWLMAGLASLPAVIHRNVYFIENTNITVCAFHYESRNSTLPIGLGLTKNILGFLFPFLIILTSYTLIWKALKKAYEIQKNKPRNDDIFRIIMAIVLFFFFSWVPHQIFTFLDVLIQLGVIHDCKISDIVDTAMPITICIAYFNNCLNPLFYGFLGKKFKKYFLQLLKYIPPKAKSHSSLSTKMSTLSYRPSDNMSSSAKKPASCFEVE

Rattus norvegicus [3] = species: Rattus norvegicus; assay: Oral effective dose required for lowering blood pressure in renal hypertensive rats (RHR); assay type: functional
[4] = Oral bioavailability in dog; assay type: ADME, organism-based, Canis lupus familiaris; conditions: in vivo
[5] = Oral bioavailability in rat; assay type: ADME, organism-based; conditions: in vivo
[6] = target: T2, Angiotensin II receptor (AT-1) type-1; assay: Inhibitory activity against Angiotensin II receptor type 1 in rat adrenal membrane; assay type: cell membranes
Rattus norvegicus [7] = assay: Intravenous effective dose required for lowering blood pressure in renal hypertensive rats (RHR); assay type: functional
[8] = target: T3, Type-2 angiotensin II receptor (Homo sapiens, UniProt P50052); assay: Ki value was evaluated against Angiotensin II receptor, type 2
T3 sequence (P50052 whole entry): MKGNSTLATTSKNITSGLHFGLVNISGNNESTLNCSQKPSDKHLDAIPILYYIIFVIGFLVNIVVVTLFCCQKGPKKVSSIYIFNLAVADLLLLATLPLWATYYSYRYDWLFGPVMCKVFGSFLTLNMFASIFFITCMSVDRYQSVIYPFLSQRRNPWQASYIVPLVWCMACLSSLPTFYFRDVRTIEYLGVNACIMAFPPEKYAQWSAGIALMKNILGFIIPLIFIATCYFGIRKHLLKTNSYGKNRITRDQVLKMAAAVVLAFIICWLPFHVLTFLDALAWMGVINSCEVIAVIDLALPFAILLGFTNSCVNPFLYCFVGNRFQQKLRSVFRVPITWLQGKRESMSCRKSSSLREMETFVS

[9] = target: T4, Type-1 angiotensin II receptor (Homo sapiens, UniProt P30556); assay: Ki value was evaluated against Angiotensin II receptor, type 1
T4 sequence (P30556 whole entry): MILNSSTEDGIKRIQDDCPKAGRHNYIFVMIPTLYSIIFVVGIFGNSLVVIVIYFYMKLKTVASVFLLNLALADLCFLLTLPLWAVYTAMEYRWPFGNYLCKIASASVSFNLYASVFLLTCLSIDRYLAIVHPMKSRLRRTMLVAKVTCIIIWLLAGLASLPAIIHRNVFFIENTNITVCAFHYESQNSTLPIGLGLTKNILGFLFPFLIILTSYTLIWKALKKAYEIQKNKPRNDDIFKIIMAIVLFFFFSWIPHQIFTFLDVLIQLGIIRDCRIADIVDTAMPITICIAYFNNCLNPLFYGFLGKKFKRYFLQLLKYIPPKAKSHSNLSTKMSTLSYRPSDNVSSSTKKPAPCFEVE

[10] = target: T2, Angiotensin II receptor (AT-1) type-1; assay: Inhibitory activity against Angiotensin II receptor, type 1 in rat aortic membranes; assay type: cell membranes
[11] = target: T5, Type-1 angiotensin II receptor (Oryctolagus cuniculus, UniProt P34976); assay: (§1) Inhibition of Angiotensin II receptor, type 1
T5 sequence (P34976 whole entry): T4 sequence (P30556 whole entry) with I2M, V49A, I254V, I270V, R272H, R311K, T349S, A353V

Oryctolagus cuniculus = species: Oryctolagus cuniculus; assay: Compound was tested for its antagonistic activity against angiotensin II-induced contractions in rabbit aorta; assay type: functional
[12] = target: T3, Type-2 angiotensin II receptor; assay: Inhibition of Angiotensin II receptor, type 2
[13] = target: T4, Type-1 angiotensin II receptor; assay: as §1

Work on `CCCC(=O)N(CCC(=O)c1c(CC)nc(CCC)n1Cc1ccc(-c2ccccc2S(=O)(=O)NC(=O)OCCC(C)C)cc1F)c1cccnc1` yielded an IC50 [1] of 0.28 nM, an IC50 ([2]; read-out: IC50) of 0.26 nM and an ED30 (Rattus norvegicus [3]) of 0.27 mg/kg.

Work on `CCCc1nc(CC)c(C(=O)O)n1Cc1ccc(-c2ccccc2-c2nn[nH]n2)cc1` yielded a bioavailability [4] of 13%, a bioavailability [5] of 8% and an IC50 [6] of 6 nM. It also gave an ED30 (Rattus norvegicus [7]) of 0.005 mg/kg and an ED30 (Rattus norvegicus [3]) of 0.03 mg/kg.

With `CCCCc1nc2ccc(NC(=O)NC3CCCCC3)cc2n1Cc1ccc(-c2ccccc2C(=O)O)cc1` the Ki [8] was 480 nM, the Ki [9] was 29 nM and the ED30 (Rattus norvegicus [7]) was roughly 2 mg/kg.

With `Cc1cc(Cn2cnc3c2C[C@@H](C(=O)O)N(C(=O)C(c2ccccc2)c2ccccc2)C3)ccc1N(C)C.O=C(O)C(F)(F)F.O=C(O)C(F)(F)F` the IC50 [2] was greater than 100000 nM.

For `CCCCc1nc2cccnc2n1Cc1ccc(-c2ccccc2-c2nnn[nH]2)cc1`, the IC50 [10] was 0.6 nM.

In the case of `CCCc1ccc(-c2nnn[nH]2)c(-c2ccc(Cn3c(CC)nc4c(C)cc(C)nc43)cc2)c1`, the IC50 [1] is reported as 2 nM and the IC50 [11] is reported as 0.3 nM.

`CCc1nc2c(C)cc(C)nc2n1Cc1ccc2c(ccn2C(=O)c2cccc(-c3nn[nH]n3)c2)c1` showed an IC50 [1] of 130 nM and an IC50 [11] of 5 nM.

With `CCCc1nc2c(C)c(NC(=O)c3ccccc3)cnc2n1Cc1ccc(-c2ccccc2S(=O)(=O)NC(=O)OCCC(C)C)cc1` the bioavailability [4] was 34%, the bioavailability [5] was 45% and the IC50 [1] was 0.29 nM. For the same compound, the IC50 ([2]; read-out: IC50) was 0.24 nM.

`CCc1nc2c(C)cc(CO)nc2n1Cc1ccc2oc(-c3ccccc3NS(=O)(=O)C(F)(F)F)c(Br)c2c1` gave a pKB (Oryctolagus cuniculus) of 8.6.

In the case of `CCCCc1nc(Cl)c(CC(=O)O)n1Cc1ccc(C(=O)O)cc1`, the ED30 (Rattus norvegicus [7]) is reported as 10 mg/kg.

With `CCCc1ccc2c(c1)-c1ccc(cc1)Cn1c(CCC)nc3ccc(cc3c1=O)NCCCCCCC(=O)NS2(=O)=O` the IC50 [12] was 24 nM and the IC50 [13] was 4 nM.

With `CCCCc1nc(Cl)c(CO)n1Cc1ccc(-c2ccccc2C(=O)O)cc1` the ED30 (Rattus norvegicus [3]) was 3.7 mg/kg.

For `CCCCOC(=O)NS(=O)(=O)c1sc(CC(C)C)cc1-c1ccc(Cn2c(CC)nc3c(C)cc(C)nc32)cc1`, the IC50 [13] was 1.1 nM.

In the case of `CCCCOC(=O)NS(=O)(=O)c1ccc(Cc2cccc(OC)c2)cc1-c1ccc(Cn2c(CC)nc3c(C)cc(C)nc32)cc1`, the IC50 [13] is reported as 1.4 nM.

`O=C(O)[C@@H]1Cc2cc(-c3ccccc3)ccc2CN1C(=O)C(c1ccccc1)c1ccccc1` gave an IC50 [1] of 30 nM and an IC50 [2] greater than 100000 nM.

`CCCc1nc(CC)c(C=O)n1Cc1ccc(-c2ccccc2-c2nn[nH]n2)cc1` showed an IC50 [6] of 2.1 nM and an ED30 (Rattus norvegicus [3]) of 0.027 mg/kg.

In the case of `CCCc1nc(C(F)(F)C(F)(F)F)c(C(=O)O)n1Cc1ccc(-c2ccccc2-c2nn[nH]n2)cc1Br`, the IC50 ([2]; read-out: IC50) is reported as 3 nM.

With `Cc1cc(Cn2cnc3c2C[C@@H](C(=O)O)N(C(=O)C(c2ccccc2)c2ccccc2)C3)ccc1N` the IC50 [13] was greater than 100000 nM.

With `CCCc1nc(CC)c(C(=O)OC)n1Cc1ccc(-c2ccccc2S(=O)(=O)NC(=O)OCCC(C)C)cc1F` the IC50 [12] was 1 nM, the IC50 [13] was 1 nM and the ED50 (Rattus norvegicus [7]) was 0.48 mg/kg. The ED50 (Rattus norvegicus [3]) was 0.67 mg/kg.

Compound `COc1ccc(Cn2cnc3c2C[C@@H](C(=O)O)N(C(=O)C(c2ccccc2)c2ccccc2)C3)cc1C` has an IC50 [1] of 70 nM and an IC50 [2] greater than 100000 nM.
